From patent US20110144303A1, “Biologically Active Peptidomimetic Macrocycles” (AILERON Therapeutics, Inc., priority 2008, published 2011)
Where two headings read alike, the source gives them in different places. Positions of bridges follow the written chain, without caps; N, C: chain ends. Non-standard residues stand in square brackets, D forms with d. Residues, ends and D or L forms follow the SMILES beside them. S5 = C=CCCC[C@](C)(N)C(=O)O; Nle = CCCC[C@H](N)C(=O)O

Assays:
[1] = Pharmacokinetics of SP-4 and SP-54 in Rats following IV dose
Text: Table printed on a drawing sheet, Figure 19
Title: Pharmacokinetics of SP-4 and SP-54 in Rats following IV dose
The patent's description of the figure: FIG. 19 illustrates the pharmacokinetic properties of SP-4 and SP-54 peptidomimetic macrocycles in rats.
First reader's note: Pharmacokinetic parameters in rats after IV dosing; the table is printed under a concentration-time plot that is not copied.

Bcl-xL = target: T1, Bcl-xL (Homo sapiens, UniProt Q07817); assay: Protein-ligand binding experiment for Bcl-xL (SEC-LC-MS affinity selection); conditions: 1 μM SP-4 and 5 μM Bcl-xL in PBS, 2.5% DMSO, 60 min at room temperature
T1 construct: GST
T1 sequence (Q07817 whole entry, species assumed): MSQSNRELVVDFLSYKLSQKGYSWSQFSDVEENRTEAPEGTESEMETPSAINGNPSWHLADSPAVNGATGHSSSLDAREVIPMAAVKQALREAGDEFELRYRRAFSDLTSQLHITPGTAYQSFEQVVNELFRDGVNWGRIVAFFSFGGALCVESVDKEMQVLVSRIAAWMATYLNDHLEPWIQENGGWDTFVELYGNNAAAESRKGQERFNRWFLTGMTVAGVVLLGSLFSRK
Protocol: Protein-ligand binding experiments for Bcl-xL. Simple protein-ligand binding experiments were conducted using the following representative procedure outlined for a simple system-wide control experiment using 1 μM SP-4 and 5 μM Bcl-xL. A 1 μL DMSO aliquot of a 40 μM stock solution of SP-4 is dissolved in 19 μL of PBS (Phosphate-buffered saline: 50 mM, pH 7.5 Phosphate buffer containing 150 mM NaCl). The resulting solution is mixed by repeated pipetting and clarified by centrifugation at 10 000 g for 10 min. To a 4 μL aliquot of the resulting supernatant is added 4 μL of 10 μM BCL-xL in PBS. Each 8.0 μL experimental sample thus contains 40 pmol (1.5 μg) of protein at 5.0 μM concentration in PBS plus 1 μM SP-4 and 2.5% DMSO. Duplicate samples thus prepared for each concentration point are incubated for 60 min at room temperature, and then chilled to 4° C. prior to size-exclusion chromatography-LC-MS analysis of 5.0 μL injections. Samples containing a target protein, protein-ligand complexes, and unbound compounds are injected onto an SEC column, where the complexes are separated from non-binding component by a rapid SEC step. The SEC column eluate is monitored using UV detectors to confirm that the early-eluting protein fraction, which elutes in the void volume of the SEC column, is well resolved from unbound components that are retained on the column. […]

GST-Bcl-2 [2] = assay: Kd
Protocol: Table printed on a drawing sheet, Figure 5
The patent's description of the figure: FIG. 5 depicts binding properties to GST-Bcl-2 of SP-4 and SP-54 peptidomimetic macrocycles.
First copying reader's note: Kd values belong to the plot beside the table, titled 'Saturation Binding Curves vs. 2 µM Receptor, 1x PBS + 5 mM CHAPS, 2.5% DMSO', with GST-Bcl-2 as the receptor.
Where the first naming reader finds the target: description_of_the_figure: FIG. 5 depicts binding properties to GST-Bcl-2 of SP-4 and SP-54 peptidomimetic macrocycles.

GST-Mcl-1 = assay: Kd
Protocol: Table printed on a drawing sheet, Figure 4
The patent's description of the figure: FIG. 4 depicts binding properties to GST-Mcl-1 of SP-4 and SP-54 peptidomimetic macrocycles.
First copying reader's note: Kd values belong to the adjacent saturation binding plot (stapled peptides + GST-Mcl-1, 2 µM receptor, 1x PBS + 5 mM CHAPS, 2.5% DMSO).
Where the first naming reader finds the target: description_of_the_figure: FIG. 4 depicts binding properties to GST-Mcl-1 of SP-4 and SP-54 peptidomimetic macrocycles.

GST-Bcl-2 [3] = assay: Kd; remark: listed apart in the source
Protocol: Table printed on a drawing sheet, Figure 8
The patent's description of the figure: FIG. 8 depicts binding properties to GST-Bcl-2 of SP-1 and SP-35 peptidomimetic macrocycles.
First copying reader's note: The Kd values belong to the plot beside the table, titled 'Saturation Binding Curves vs. 2 µM Receptor, 1x PBS + 5 mM CHAPS, 2.5% DMSO', whose legend names the receptor as GST-Bcl-2.
Where the first naming reader finds the target: description_of_the_figure: FIG. 8 depicts binding properties to GST-Bcl-2 of SP-1 and SP-35 peptidomimetic macrocycles.

[4] = Pharmacokinetics of SP-1 and SP-35 in Rat following IV dose
Text: Table printed on a drawing sheet, Figure 18
Title: Pharmacokinetics of SP-1 and SP-35 in Rat following IV dose
The patent's description of the figure: FIG. 18 illustrates the pharmacokinetic properties of SP-1 and SP-35 peptidomimetic macrocycles in rats.
First reader's note: The title stands over the plot above the table and applies to both: rat, IV dose.

GST-Bcl-XL = target: T2, GST-Bcl-XL (Homo sapiens, UniProt Q07817); assay: Kd
T2 construct: GST
T2 sequence (Q07817 whole entry, looked up): as the sequence (Q07817 whole entry, species assumed) above
Protocol: Table printed on a drawing sheet, Figure 7
The patent's description of the figure: FIG. 7 depicts binding properties to GST-Bcl-XL of SP-1 and SP-35 peptidomimetic macrocycles.
First copying reader's note: The table stands beside a saturation binding plot (2 µM receptor, 1x PBS + 5 mM CHAPS, 2.5% DMSO) whose legend names GST-Bcl-xL as the receptor for both peptides.
Where the first naming reader finds the target: description_of_the_figure: FIG. 7 depicts binding properties to GST-Bcl-XL of SP-1 and SP-35 peptidomimetic macrocycles.

[5] = Pepsin Stability: (E/S 1:50)
Text: Table printed on a drawing sheet, Figure 12
Title: Pepsin Stability: (E/S 1:50)
The patent's description of the figure: FIG. 12 describes the comparative pepsin stability of SP-1 and SP-35 peptidomimetic macrocycles of the invention.
First reader's note: The title is printed over the plot below the table; the rate constants and half-lives describe degradation by pepsin, and the time points used are on the plot's Time (min) axis.

Row | Structure (SMILES) | AUC,inf [1] | Cl [1] | Vss [1] | Vz [1] | Cmax ([1]; rat, in vivo, iv) | MRT ([1]; rat, in vivo, iv) | detection of the protein-ligand complex by ESI-MS after size-exclusion chromatography (Bcl-xL) | Kd (GST-Bcl-2 [2]) | Kd (GST-Mcl-1) | Kd (GST-Bcl-2 [3]) | AUC,inf [4] | Vss [4] | Vz [4] | Cmax ([4]; rat, in vivo, iv) | MRT ([4]; rat, in vivo, iv) | half-life ([4]; rat, in vivo, iv) | Kd (GST-Bcl-XL) | K1 min^-1 [5] | half-life^1 [5]
1 | CC[C@H](C)[C@H](NC(C)=O)C(=O)N[C@@H](Cc1c[nH]c2ccccc12)C(=O)N[C@H](C(=O)N[C@@H](C)C(=O)N[C@@H](CCC(N)=O)C(=O)N[C@@H](CCC(=O)O)C(=O)N[C@@H](CC(C)C)C(=O)N[C@@H](CCCNC(=N)N)C(=O)N[C@@]1(C)CCCC=CCCC[C@@](C)(C(=O)N[C@@H](Cc2ccccc2)C(=O)N[C@@H](CC(N)=O)C(=O)N[C@@H](C)C(=O)N[C@@H](Cc2ccc(O)cc2)C(=O)N[C@@H](Cc2ccc(O)cc2)C(=O)N[C@@H](C)C(=O)N[C@@H](CCCNC(=N)N)C(=O)N[C@@H](CCCNC(=N)N)C(N)=O)NC(=O)[C@H](CC(=O)O)NC(=O)CNC(=O)[C@H]([C@@H](C)CC)NC1=O)[C@@H](C)CC [SP-4, Ac-IWIAQELR$IGD$FNAYYARR-NH2] | 38000 ng·h/mL | 1.37 mL/min/kg | 0.263 L/kg | 0.728 L/kg | 18100 ng/mL | 3.1 h | detection of the protein-ligand complex | 26 nM | 7 nM |  |  |  |  |  |  |  |  |  | 
2 | CCCC[C@H](NC(=O)[C@]1(C)CCCC=CCCC[C@](C)(NC(=O)[C@H](C)NC(=O)[C@H](CC(C)C)NC(=O)[C@H](Cc2c[nH]cn2)NC(=O)[C@H](CCCNC(=N)N)NC(=O)[C@H](C)NC(=O)[C@@H](NC(=O)[C@H](CC(N)=O)NC(=O)[C@H](CCCNC(=N)N)NC(=O)[C@@H](NC(=O)[C@@H](NC(=O)[C@H](CC(=O)O)NC(C)=O)[C@@H](C)CC)[C@@H](C)CC)[C@@H](C)CC)C(=O)N[C@@H](C(C)C)C(=O)NCC(=O)N[C@@H](CC(=O)O)C(=O)N1)C(=O)N[C@@H](CC(=O)O)C(=O)N[C@@H](CCCNC(=N)N)C(=O)N[C@@H](CO)C(=O)N[C@H](C(N)=O)[C@@H](C)CC [SP-1, Ac-DIIRNIARHLA$VGD$NleDRSI-NH2] (Ac-DIIRNIARHLA[S5]VGD[S5][Nle]DRSI-NH2; staple 12-16) |  |  |  |  |  |  |  |  |  | 1600 nM | 72000 ng·h/mL | 0.098 L/kg | 0.274 L/kg | 37000 ng/mL | 2.2 h | 4.3 h | 43 nM | 0.0084 min⁻¹ | 1.38 h
